Assay results: PubChem BioAssay AID308 (DTP/NCI, 2004)
Where “and” joins values, the source holds several entries; their conditions need not be identical. Equal values may be shown once. Inconclusive results and toxic doses are left out.

System: BDF1 mice, L1210 6-MP/6-TG resistant leukemia ip, survival T/C
Test: NCI In Vivo Anticancer Drug Screen. Data for tumor model L1210 Leukemia resistant to 6-MP and 6-Thioguanine; NSC 755, NSC 752 (intraperitoneal) in B6D2F1 (BDF1) mice
Settings: endpoint: mean survival time, higher = longer survival
Protocol: The antitumor activity of compounds was measured in mice bearing transplantable tumors. Survival or tumor size were measured and the results are expressed as the measurement made in the treated group (T) divided by the measurement made in the vehicle treated control group (C). The tumor model used in this assay is L1210 Leukemia resistant to 6-MP and 6-Thioguanine; NSC 755, NSC 752 (intraperitoneal) in B6D2F1 (BDF1) mice

CCCC(=O)OCC1OC(n2cnc3c(=S)nc(N)[nH]c32)C(OC(=O)CCC)C1OC(=O)CCC (stereo not drawn) was tested, and the T/C (dose: 6.0 mg/kg/injection, schedule: Q01DX Z (ip), vehicle: carboxymethylcellulose (CMC)) was 113 % of control, the T/C (dose: 12.0 mg/kg/injection, schedule: Q01DX Z (ip), vehicle: carboxymethylcellulose (CMC)) was 93 % of control and the T/C (dose: 24.0 mg/kg/injection, schedule: Q01DX Z (ip), vehicle: carboxymethylcellulose (CMC)) was 98 % of control.

COc1cc([C@@H]2c3cc4c(cc3[C@H](O)[C@H]3COC(=O)[C@@H]23)OCO4)cc(OC)c1OC was tested, and the T/C (dose: 10.0 mg/kg/injection, schedule: Q01DX Z (ip), vehicle: carboxymethylcellulose (CMC)) was 124 % of control and the T/C (dose: 40.0 mg/kg/injection, schedule: Q01DX Z (ip), vehicle: carboxymethylcellulose (CMC)) was 101 % of control.

S=c1nc[nH]c2c1ncn2C1CCCC1 was tested, and the T/C (dose: 10.0 mg/kg/injection, schedule: Q01DX015 (ip), vehicle: carboxymethylcellulose (CMC)) was 95 % of control, the T/C (dose: 10.0 mg/kg/injection, schedule: Q01DX015 (ip), vehicle: saline) was 100 % of control and the T/C (dose: 30.0 mg/kg/injection, schedule: Q01DX015 (ip), vehicle: carboxymethylcellulose (CMC)) was 98 % of control. The T/C (dose: 50.0 mg/kg/injection, schedule: Q01DX015 (ip), vehicle: carboxymethylcellulose (CMC)) was 97 % of control and the T/C (dose: 50.0 mg/kg/injection, schedule: Q01DX015 (ip), vehicle: saline) was 93 % of control.

With Nc1nc(SCc2ccccc2)c2ncn(C3OC(CO)CC3O)c2n1 (stereo not drawn) the T/C (dose: 18.75 mg/kg/injection, schedule: Q01DX009 (ip), vehicle: other) was 100 % of control, the T/C (dose: 37.5 mg/kg/injection, schedule: Q01DX009 (ip), vehicle: other) was 97 % of control and the T/C (dose: 75.0 mg/kg/injection, schedule: Q01DX009 (ip), vehicle: other) was 99 % of control. The T/C (dose: 150.0 mg/kg/injection, schedule: Q01DX009 (ip), vehicle: other) was 91 % of control.

For C=CC(CN1CC1)OC(C)=O (stereo not drawn), the T/C (dose: 3.0 mg/kg/injection, schedule: Q01DX Z (ip), vehicle: saline) was 116 % of control, the T/C (dose: 12.0 mg/kg/injection, schedule: Q01DX Z (ip), vehicle: saline) was 150 % of control and the T/C (dose: 15.0 mg/kg/injection, schedule: Q01DX Z (ip), vehicle: saline) was 91 % of control.

For CCSc1nc(Cl)cc(Sc2nc(N)nc3nc[nH]c23)n1, the T/C (dose: 8.0 mg/kg/injection, schedule: Q01DX Z (ip), vehicle: other) was 107 % of control and the T/C (dose: 16.0 mg/kg/injection, schedule: Q01DX Z (ip), vehicle: other) was 90 % of control.

In the case of N=C(N)c1ccc(Nc2ccc(C(=N)N)cc2)cc1, the T/C (dose: 2.0 mg/kg/injection, schedule: Q01DX Z (ip), vehicle: water) is reported as 112 % of control, the T/C (dose: 4.0 mg/kg/injection, schedule: Q01DX Z (ip), vehicle: water) is reported as 102 % of control and the T/C (dose: 6.0 mg/kg/injection, schedule: Q01DX Z (ip), vehicle: water) is reported as 104 % of control. The T/C (dose: 8.0 mg/kg/injection, schedule: Q01DX Z (ip), vehicle: water) was 106 % of control, the T/C (dose: 9.37 mg/kg/injection, schedule: Q01DX Z (ip), vehicle: water) was 104 % of control and the T/C (dose: 18.75 mg/kg/injection, schedule: Q01DX Z (ip), vehicle: water) was 100 % of control.

In the case of CCCC(=O)OCC1OC(n2cnc3c(=S)nc[nH]c32)C(OC(=O)CCC)C1OC(=O)CCC (stereo not drawn), the T/C (dose: 6.25 mg/kg/injection, schedule: Q01DX Z (ip), vehicle: other) is reported as 99 % of control, the T/C (dose: 12.5 mg/kg/injection, schedule: Q01DX Z (ip), vehicle: other) is reported as 92 % of control and the T/C (dose: 25.0 mg/kg/injection, schedule: Q01DX009 (ip), vehicle: Klucel (hydroxypropylcellulose) (HPC)) is reported as 92 % of control. The T/C (dose: 25.0 mg/kg/injection, schedule: Q01DX Z (ip), vehicle: other) was 90 % of control and 92 % of control, the T/C (dose: 50.0 mg/kg/injection, schedule: Q01DX009 (ip), vehicle: Klucel (hydroxypropylcellulose) (HPC)) was 98 % of control and the T/C (dose: 50.0 mg/kg/injection, schedule: Q01DX Z (ip), vehicle: other) was 96 % of control. The T/C (dose: 100.0 mg/kg/injection, schedule: Q01DX009 (ip), vehicle: Klucel (hydroxypropylcellulose) (HPC)) was 92 % of control and the T/C (dose: 100.0 mg/kg/injection, schedule: Q01DX Z (ip), vehicle: other) was 90 % of control.

With N#CCSc1ncnc2nc[nH]c12 the T/C (dose: 12.5 mg/kg/injection, schedule: Q01DX Z (ip), vehicle: carboxymethylcellulose (CMC)) was 86 % of control, the T/C (dose: 25.0 mg/kg/injection, schedule: Q01DX Z (ip), vehicle: carboxymethylcellulose (CMC)) was 88 % of control and the T/C (dose: 37.5 mg/kg/injection, schedule: Q01DX Z (ip), vehicle: carboxymethylcellulose (CMC)) was 87 % of control. For the same compound, the T/C (dose: 75.0 mg/kg/injection, schedule: Q01DX Z (ip), vehicle: carboxymethylcellulose (CMC)) was 90 % of control and the T/C (dose: 100.0 mg/kg/injection, schedule: Q01DX Z (ip), vehicle: carboxymethylcellulose (CMC)) was 100 % of control.
